Results reported in patent US8741932B2, “Imidazopyridine derivatives” (Piramal Enterprises Limited, priority 2009, dated 2014).

Experiments:
IL-6 = assay: Human monocyte assay, LPS-stimulated IL-6; format: cell-based; details: human monocytes, 1 μg/ml LPS, 5 hours
Experimental: The assay was designed as in the reference, Physiol.
Peripheral blood mononuclear cells (hPBMC) were harvested from human blood and suspended in RPMI 1640 culture medium containing 10% FCS, 100 U/mL penicillin and […] streptomycin (assay medium). Monocytes in the hPBMCs were counted using a Coulter Counter following which the cells were resuspended at 2×10^5 monocytes/mL. A cell suspension containing 2×10^4 monocytes was aliquoted per well of a 96-well plate. Subsequently, the hPBMCs were incubated for 4-5 hours at 37° C., 5% CO2 (During the incubation, the monocytes adhered to the bottom of 96-well plastic culture plate). Following the incubation, the non-adherent lymphocytes were washed with assay medium and the adherent monocytes re-fed with assay medium. After a 48-hour incubation period (37° C., 5% CO2), monocytes were pretreated with various concentrations of representative compounds of present invention (refer to table 6 and 7) (prepared in DMSO) or vehicle (0.5% DMSO) for 30 minutes and stimulated with 1 μg/ml LPS (Escherchia coli 0111:B4, Sigma Chemical Co., St. Louis, Mo.). The incubation was continued for 5 hours at 37° C., 5% CO2. Supernatants were harvested, assayed for IL-6 and TNF-α by ELISA as described by the manufacturer (BD Biosciences, USA). Dexamethasone (10 μM) was used as standard for this assay. […] Biological results for both IL-6 and TNFα are indicated in Table 6 and Table 7 respectively.

STAT3 = STAT3 bioassay (Hela Stat3-luc, luciferase); format: cell-based; details: Oncostatin M induction
Experimental: Cells were seeded (Hela Stat3-luc, ATCC P/N 30-2002) in a white 96 well plate (Nunc cat.no.136101) at a density of 20,000cells/well in 179 μl volume per well (DMEM from Sigma containing 10% FCS). The plate was incubated for 24 hours at 37° C./5% CO2. The cells (wells in triplicates) were then treated with 1 μl/well of 200× stock of the desired compound concentration prepared in 100% DMSO. Curcumin was used as a standard or positive control, added 10 μg/ml in triplicate. DMSO was used as medium control (1 μl/well added in triplicates). The plate was incubated at 37° C./5% CO2 for 1 hour. 20 μl/well Oncostatin M (Oncostatin M, Human, Recombinant, E. coli, Cat.No. 496260, 10 μg from Calbiochem) was added to treated wells, induction control (in triplicate) (1000 ng/ml stock prepared in serum free medium to get final concentration 100 ng/ml). The plate was then incubated for 7-8 hours at 37° C./5% CO2 for induction. A typical assay would consist of triplicate of medium control, triplicate of induction control, triplicate of positive/standard control and test compounds at desired concentration in triplicates. For termination Luciferase assay protocol was followed where the culture medium was removed from all the wells.
200 μl well of PBS was added to remove traces of medium and compound. The PBS was discarded. 40 μl/well of 1× lysis buffer was added to all the wells. The plate was incubated at RT for 20 minutes with intermittent shaking. 100 μl/well of LAB reagent was added to all the wells in dark. {LAB reagent for 1 plate=8 ml Luciferase assay buffer (LAB)+1 ml Coenzyme A (Sigma cat no. C3019) (2.1 mg/ml stock in LAB)+530 μL of ATP (Sigma cat.no.A2383) (5.85 mg/ml stock in LAB)+1 ml luciferin reagent (Promega cat no.245355) (2 mg/ml stock in LAB, protect from light)}.
The luminescence was immediately read on polar star. The values were expressed as percentage inhibition, in terms of treated values to that STAT3 (induction control). IC50 values were calculated from graphs using these percentages.

H460 = assay: Cytotoxicity assay (propidium iodide), H460; format: cell-based; details: Homo sapiens, NCI-H460; H460 (C1b, lung); 48 hours
Experimental: (§1) Cells from cell lines as mentioned in the table given below were seeded at a density of 3000 cells/well in a white opaque 96-well plate. Following incubation at 37° C./5% CO2 for a period of 18-24 hours, the cells were treated with various concentrations (stock solution was prepared in DMSO and subsequent dilutions were made in media as per ATCC guidelines) of the representative compounds of present invention (refer table 3) for a period of 48 hours. At the end of treatment, the spent culture medium was discarded, the cells were washed with 1×PBS and 200 μl of 7 μg/ml propidium iodide was added to each well. The plates were frozen at −70° C. for at least 24 hours. For analysis, the plates were brought to RT, allowed to thaw and were read in PolarStar fluorimeter with the fluorescence setting. The percentage of viable cells in the non treated set of wells was considered to be 100 and the percentage viability following treatment was calculated accordingly. IC50 values were calculated from graphs plotted using these percentages.

A549 = assay: Cytotoxicity assay (propidium iodide), A549; format: cell-based; details: Homo sapiens; A549 (C1a, lung); 48 hours
Experimental: as §1

PC3 = assay: Cytotoxicity assay (propidium iodide), PC3; details: for % inhibition at 1 μM: PC3 (C2a); for inhibition at 1 µM: Homo sapiens, PC-3, read-out: % inhibition at 1 μM
A2780 = assay: Cytotoxicity assay (propidium iodide), A2780; format: cell-based; details: for % inhibition at 1 μM / inhibition at 1 µM: A2780 (C3a)
PI3Kα kinase = biological target: T1, PI3Kα kinase (Homo sapiens, UniProt P42336); assay: Kinase assay (PI3Kα); format: biochemical; details: for IC50: read-out: IC50 (μM) for PI3K inhibition
T1 construct: purchased Millipore, USA
Experimental: The kinase reaction was carried out in a 25 μL volume in a 1.5 mL microcentrifuge tube. The reaction mixture consisted of kinase buffer (10 mM Hepes, pH 7.5, 50 mM MgCl2), 20 ng PI3Kα kinase (Millipore, USA), 12.5 μg phosphotidylinositol (PI), 10 μM ATP and 1 μCi ^32γ P […]. […] The reactions were incubated at 30° C. for 20 minutes and were terminated by adding 1:1 mixture of MeOH and CHCl3. The tube contents were mixed on a vortex mixer and centrifuged at 10000 rpm for 2 minutes. 10 μL of the organic (lower) phase was spotted on to a TLC plate (silica, mobile phase: n-propanol and 2 M glacial acetic acid in 65:35 ratio). The plates were dried and exposed to an X-ray film. The bands appearing as a result of ^32γ P incorporation in PI were quantitated using the Quantityl)ne (BioRad, USA) densitometry program. PI-103 (Calbiochem, USA) was used as a standard.

mTOR = biological target: T2, mTOR (Homo sapiens, UniProt P42345); assay: mTOR activity assay (cell ELISA, Phospho-AKT Ser 473, A2780 cells); format: cell-based; details: 1 μM, read-out: % Inhibition of mTOR activity at 1 μM (number, standard)
T2 construct: endogenous in cells; host or cells: A2780 ovarian cell line (ATCC)
Experimental: Seed cells (Ovarian cell line A2780, ATCC) were plated in a 96 well microtitre plate at a density of 50,000 cells/cm^2 in appropriate complete cell culture medium. The cells were allowed to adhere for 18-24 hours. The cells were allowed to starve for 24 hours. […] Then the cells were stimulated with 20% FCS for 30 minutes. A typical assay would consist of a set of unstimulated cells, a set of stimulated cells and a set of cells treated with compounds of present invention and a set of cells treated with the stimulator. The medium was discarded. The cells were fixed with 100 μL of 3.7% formaldehyde for 15 minutes. The formaldehyde was discarded by inverting the plate and tapping it on a thick tissue paper layer to remove traces. The cells were washed and permeabilized with 200 μL PBS+Triton-X 100 solution (hereafter referred to as PBS-Triton, containing 0.1% triton-X 100 in 1×PBS) three times, incubating the cells each time for 5 minutes. 100 μL blocking solution (10% FCS in PBS-Triton) was added and incubated for 1 hour at 25° C. The blocking solution was discarded and cells were incubated with the primary antibody in PBS-Triton at a dilution of 1:500 for 1 hour at RT (25° C.). [The primary antibody is Phospho-AKT (Ser 473); Cell Signaling; Cat. No. 9271]. The primary antibody solution was discarded and the cells were washed 3 times with PBS-Triton solution and incubated with the HRP-conjugated secondary antibody in PBS-Triton at a dilution of 1:500 for 1 hour at RT (25° C.). The cells were washed 3 times with PBS-Triton followed by two washes with PBS (to remove traces of triton-X 100). The OPD (o-phenylene diamine dihydrochloride) substrate was prepared for detection of the signal by dissolving one tablet set (two tablets) of SigmaFast OPD (Sigma, Cat No. P9187) in 20 mL distilled water. It should be protected from light. 100 μL OPD solutions was added to the wells and the plate was incubated in the dark for 3-5 minutes (depending upon the development of the color). The reaction was stopped by adding 50 μL 2 N H2SO4. The absorbance was measured at 490 nm. The values were expressed in the treated samples, in terms of percentage or fold decrease in AKT phosphorylation with respect to the induced sample. PI-103 (Calbiochem, USA) was used as a standard.

T1 sequence (P42336 whole entry): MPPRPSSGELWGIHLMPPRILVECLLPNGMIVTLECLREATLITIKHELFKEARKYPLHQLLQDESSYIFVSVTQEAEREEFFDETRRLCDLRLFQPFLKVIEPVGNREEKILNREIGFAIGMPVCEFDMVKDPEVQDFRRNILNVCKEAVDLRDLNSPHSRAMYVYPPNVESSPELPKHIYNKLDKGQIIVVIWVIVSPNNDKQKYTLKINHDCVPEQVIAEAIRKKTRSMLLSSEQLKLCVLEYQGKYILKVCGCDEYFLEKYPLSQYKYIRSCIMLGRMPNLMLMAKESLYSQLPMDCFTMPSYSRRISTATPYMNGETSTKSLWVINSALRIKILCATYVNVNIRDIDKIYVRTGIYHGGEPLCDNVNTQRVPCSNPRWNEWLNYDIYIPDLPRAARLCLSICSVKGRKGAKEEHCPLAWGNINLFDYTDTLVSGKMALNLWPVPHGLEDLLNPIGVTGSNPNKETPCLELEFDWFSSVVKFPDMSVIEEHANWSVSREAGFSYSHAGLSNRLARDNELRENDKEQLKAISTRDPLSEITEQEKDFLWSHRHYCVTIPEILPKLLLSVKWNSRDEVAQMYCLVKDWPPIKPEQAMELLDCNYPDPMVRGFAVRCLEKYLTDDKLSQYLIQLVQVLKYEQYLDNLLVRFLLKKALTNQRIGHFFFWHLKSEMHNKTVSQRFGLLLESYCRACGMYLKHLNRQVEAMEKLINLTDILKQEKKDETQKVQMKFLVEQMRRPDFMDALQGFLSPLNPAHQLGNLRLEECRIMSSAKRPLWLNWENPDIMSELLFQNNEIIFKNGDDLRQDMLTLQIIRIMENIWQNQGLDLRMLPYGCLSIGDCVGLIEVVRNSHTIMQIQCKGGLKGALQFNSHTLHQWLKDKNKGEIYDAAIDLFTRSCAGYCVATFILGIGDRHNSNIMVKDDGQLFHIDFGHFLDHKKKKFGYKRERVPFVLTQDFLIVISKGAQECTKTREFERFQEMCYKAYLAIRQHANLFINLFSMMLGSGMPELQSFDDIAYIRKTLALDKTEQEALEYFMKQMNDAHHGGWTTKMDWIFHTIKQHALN
T1 sequence (P27986 whole entry partner): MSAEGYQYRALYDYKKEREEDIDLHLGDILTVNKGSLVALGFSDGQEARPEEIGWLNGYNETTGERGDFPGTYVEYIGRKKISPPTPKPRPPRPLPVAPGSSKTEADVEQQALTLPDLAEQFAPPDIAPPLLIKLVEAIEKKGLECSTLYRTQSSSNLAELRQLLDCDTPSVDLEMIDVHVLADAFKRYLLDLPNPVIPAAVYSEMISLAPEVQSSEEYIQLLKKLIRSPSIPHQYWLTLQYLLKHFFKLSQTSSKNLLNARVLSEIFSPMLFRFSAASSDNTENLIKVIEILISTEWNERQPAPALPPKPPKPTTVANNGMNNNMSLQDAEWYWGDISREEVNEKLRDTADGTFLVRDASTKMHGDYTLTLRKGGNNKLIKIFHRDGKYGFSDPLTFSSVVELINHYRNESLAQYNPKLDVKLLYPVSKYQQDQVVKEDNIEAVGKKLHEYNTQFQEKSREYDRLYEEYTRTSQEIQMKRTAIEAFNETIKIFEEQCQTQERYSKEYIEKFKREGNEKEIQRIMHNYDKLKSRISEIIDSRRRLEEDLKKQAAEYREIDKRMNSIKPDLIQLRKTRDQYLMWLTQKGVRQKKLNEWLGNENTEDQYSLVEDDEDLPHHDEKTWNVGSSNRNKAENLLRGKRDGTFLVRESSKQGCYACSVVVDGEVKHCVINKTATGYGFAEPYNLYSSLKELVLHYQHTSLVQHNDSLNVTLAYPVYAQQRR

Compound | IC50 (IL-6; Monocyte) [µM] | inhibition at 1 µM (PC3) [%] | inhibition at 1 µM (A2780; Homo sapiens) [%] | other results
N-methyl-1-phenyl-N′-((6-pyridin-3-yl) imidazo[1,2-a]pyridine-3-yl) methylene)benzenesulfonohydrazide [Example 28] |  |  |  | IC50 (IL-6): 0.001 to 5 µM; IC50 (STAT3): > 10 µM
CN(/N=C/c1cnc2ccc(-c3cccnc3)cn12)S(=O)(=O)c1ccccc1OC(F)(F)F [Example 54, (E)-N-methyl-N′-((6-(pyridin-3-yl)imidazo[1,2-a]pyridin-3-yl)methylene)-2-(trifluoromethoxy)benzenesulfonohydrazide] | 0.001 to 5 |  |  | IC50 (H460): 0.01 to 5 µM; IC50 (A549): 0.01 to 5 µM
Cc1ccc(F)c(NC(=O)N(C)N=Cc2cnc3ccc(Br)cn23)c1 [Example 146] |  |  |  | IC50 (IL-6): ≥ 5 µM; % inhibition at 1 μM (PC3): ++ (% Inhibition >50%); % inhibition at 1 μM (A2780): ++ (% Inhibition >50%)
Cc1ccc(F)cc1S(=O)(=O)N(C)/N=C/c1cnc2c(C)cc(-c3cccnc3)cn12 [Example 100, (E)-5-Fluoro-N,2-dimethyl-N′-((8-methyl-6-(pyridin-3-yl)imidazo[1,2-a]pyridin-3-yl)methylene)benzenesulfonohydrazide] |  |  |  | IC50 (PI3Kα kinase): 0.01 to 0.5 µM; IC50 (H460): 0.01 to 5 µM; IC50 (A2780; Homo sapiens, A2780 (C3a, ovarian), 48 hours): 0.01 to 5 µM; IC50 (A549): 0.01 to 5 µM
Cc1cc(S(=O)(=O)N(C)N=Cc2cnc3ccc(-c4cccnc4)cn23)ccc1Br [Example 22, 4-Bromo-N, 3-dimethyl-N′-((6-(pyridine-3-yl)imidazo[1,2-a]pyridine-3-yl)methylene) benzenesulfonohydrazide] | ≥ 5 |  |  | IC50 (PI3Kα kinase): 0.01 to 0.5 µM; IC50 (STAT3; Homo sapiens): 0.1 to 5 µM
COc1ccc(Br)cc1S(=O)(=O)N(C)/N=C/c1cnc2ccc(-c3cccnc3F)cn12 [Example 91, (E)-5-bromo-N′-((6-(2-fluoropyridin-3-yl)imidazo[1,2-a]pyridin-3-yl)methylene)-2-methoxy-N-methylbenzenesulfonohydrazide] |  | > 50 | > 50 | 
Cc1ccccc1S(=O)(=O)N(C)/N=C/c1cnc2ccc(-c3cccnc3)cn12 [Example 53, (E)-N, 2-dimethyl-N′-((6-(pyridin-3-yl)imidazo[1,2-a]pyridin-3-yl)methylene)benzenesulfonohydrazide] | 0.001 to 5 |  |  | IC50 (H460): 0.01 to 5 µM; IC50 (A549): 0.01 to 5 µM
Cc1ccc(F)c(NC(=O)N(C)/N=C/c2cnc3ccc(-c4cccnc4)cn23)c1 [Example 143, (E)-N-(2-fluoro-5-methylphenyl)-1-methyl-2-((6-(pyridin-3-yl)imidazo[1,2-a]pyridin-3-yl)methylene)hydrazinecarboxamide] | 0.001 to 5 | 30 to 50 | 30 to 50 | 
Oc1cccc(-c2nc(N3CCOCC3)c3oc4ncccc4c3n2)c1 [PI-103, reference compound] |  |  |  | inhibition at 0.1 µM (PI3Kα kinase; at 100 nM): 80%; inhibition at 1 µM (mTOR): 50%
CN(N=Cc1cnc2ccc(Br)cn12)C(=S)Nc1ccc(C(F)(F)F)cc1 [Example 152, 2-((6-bromoimidazo[1,2-a]pyridin-3-yl)methylene)-1-methyl-N-(4-(trifluoromethyl)phenyl) hydrazinecarbothioamide] |  |  |  | IC50 (IL-6): 0.001 to 5 µM; % inhibition at 1 μM (PC3): + (50% ≧ % Inhibition ≧ 30%); % inhibition at 1 μM (A2780): + (50% ≧ % Inhibition ≧ 30%)
Cc1ccc(NC(=O)N(C)/N=C/c2cnc3ccc(-c4cccnc4)cn23)cc1 [Example 142, (E)-1-methyl-2-((6-(pyridin-3-yl)imidazo[1,2-a]pyridin-3-yl)methylene)-N-p-tolylhydrazinecarboxamide] | ≥ 5 | 30 to 50 | 30 to 50 | 

Further lines, with some results ahead:

IC50 (IL-6; Monocyte) [µM] | Compound | inhibition at 1 µM (PC3) [%] | inhibition at 1 µM (A2780; Homo sapiens) [%] | other results
≥ 5 | CN(/N=C/c1cnc2ccc(-c3cccnc3)cn12)C(=S)Nc1ccc(C#N)cc1 [Example 149, (E)-N-(4-cyanophenyl)-1-methyl-2-((6-(pyridin-3-yl)imidazo[1,2-a]pyridin-3-yl)methylene)hydrazinecarbothioamide] | 30 to 50 | 30 to 50 | 
≥ 5 | COc1ccc(NC(=S)N(C)/N=C/c2cnc3ccc(-c4cccnc4)cn23)cc1 [Example 150, (E)-N-(4-methoxyphenyl)-1-methyl-2-((6-(pyridin-3-yl)imidazo[1,2-a]pyridin-3-yl)methylene)hydrazinecarbothioamide] | 30 to 50 | 30 to 50 | 
≥ 5 | Cc1ccc(F)cc1NC(=O)N(C)/N=C/c1cnc2ccc(-c3cccnc3)cn12 [Example 144, (E)-N-(5-fluoro-2-methylphenyl)-1-methyl-2-((6-(pyridin-3-yl)imidazo[1,2-a]pyridin-3-yl)methylene)hydrazinecarboxamide] | 30 to 50 | 30 to 50 | 
